Consider 32 compounds from US10562857B2 (AFASCI, Inc., priority 2015, dated 2020).

The experiment deals with T1, Cav3.2 channel (Homo sapiens, UniProt O95180).
T1 construct: expressed in transfected cells; host or cells: HEK-293, tetracycline inducible expression system (Invitrogen)
Description: Whole-cell patch clamp of T-type Cav3.2 channel expressed in HEK293 cells. Format: cell-based. The procedure: Cav3.1, Cav3.2 or Cav3.3 channels were expressed in human embryonic kidney (HEK)-293 cells using a tetracycline inducible expression system (Invitrogen). Cells were maintained in 25 cm^2 tissue culture flasks at 37° C., 5% CO2, and 100% relative humidity in D-MEM/F12 (Dulbecco's Modified Eagle Medium/Nutrient Mixture F-12; Gibco) supplemented with fetal bovine serum (FBS, 10% v/v), sodium pyruvate (0.5 mM, Gibco), penicillin-streptomycin (100 U/mL, 100 μg/mL) and Geneticin® Selective antibiotic (G418; 0.5 mg/mL). Cells were detached from the flask base using a non-enzymatic cell dissociation solution (Cellstripper, Corning), removed and re-seeded on to poly-D-lysine coated glass coverslips in 35 mm dishes. Cells in dishes were further supplemented with G418 at a final concentration of 1 mg/mL and after 24 hours, expression of Cav3.2 was induced with 1 μg/mL tetracycline. The medium for the HEK-293 cells was composed of D-MEM/F-12 (Dulbecco's Modified Eagle Medium/Nutrient Mixture F-12; Gibco, #11330-032) and 15 mM HEPES buffer, with L-glutamine and pyridoxine hydrochloride. It was supplemented with FBS (Fetal Bovine Serum), P/S (Penicillin/Streptomycin) (Gibco, #15140-122), and sodium pyruvate 100 mM (Gibco, #11360-070). At least 24 hours before the assay, expression of the alpha-2-delta-1 and beta2a subunits of the calcium channel were induced with 1 ug/mL tetracycline.
Whole-cell voltage clamp recordings were performed on rat or mouse DRG neurons within 2 days after acutely dissociation or cultured HEK293 cells expressing T-type channels (encoded by Cav3.1, Cav3.2 or Cav3.3 channels). All experiments were performed at room temperature (around 21° C.). Whole-cell currents were recorded using a MultiClamp 700B amplifier and analyzed offline with pCLAMP10.4 software (Molecular Devices, LLC, Sunnyvale Calif., USA). To record calcium currents in DRG and HEK293 cells, the external solution was composed (in mM) of 115 choline-Cl, 30 TEA-Cl, 2 CaCl2, 10 glucose and 10 HEPES (pH 7.3-7.4 adjusted with TEA-OH; osmolality verified as 295 mOsm/kg). The internal solution was composed (in mM) of 125 CsCl, 10 HEPES (acid), 10 EGTA (ethylene glycol tetraacetic acid), 1 CaCl2, 1 MgCl2, 4 MgATP and 0.3 MgGTP (pH 7.3-7.4 adjusted with CsOH; osmolality verified as 295 mOsm/kg). Since the sodium ions were absent in the external solution, tetrodoctoxin was not needed. Calcium currents were recorded at a holding potential of −100 mV and then depolarized to −30 mV for 100 ms to activate either Cav3.1, Cav3.2, or Cav3.3 expressed in HEK cells. An interpulse interval of 10 seconds allowed the channel recovery from inactivation, and achieved stable current recordings. To record sodium (Na^+) currents in DRG neurons, the external solution used the modified Krebs solution specified above. The internal solution was composed (in mM) of 120 CsF, 10 HEPES, 11 EGTA, 1 CaCl2, 1 MgCl2, 10 TEA-Cl, 4 MgATP and 0.3 MgGTP (pH 7.3-7.4 adjusted with CsOH). […] To record potassium currents in DRG neurons, the external solution used the modified Kreb's solution specified above. The internal solution was composed (in mM) of 65 KCl, 80 KF, 5 KOH, 10 EGTA, 2 MgATP (pH 7.3-7.4 adjusted with KOH). Recording electrodes were fabricated using a P-87 puller (Sutter Instrument Co., Novato, Calif., USA). The tip of resistance was 3-4 MQ in bath and the series resistance was less than 10 MΩ after whole cell configuration. All reagents were purchased from Sigma unless specified otherwise. Test compounds were usually applied via a rapid solution exchange system with 8 fine polyplastic tubings (100 μm, OD) glued in a holder in parallel and located closely to the recorded cells. […]

[1] abbreviates: HEK293, Table 1 primary screening.
The mark [2] stands for this setting: Table 1, tested at at least 4 concentrations, read-out: IC50.

Each structure is given as a SMILES string. Like-named read-outs stand apart in the source and are kept apart here.

T1 sequence (O95180 whole entry): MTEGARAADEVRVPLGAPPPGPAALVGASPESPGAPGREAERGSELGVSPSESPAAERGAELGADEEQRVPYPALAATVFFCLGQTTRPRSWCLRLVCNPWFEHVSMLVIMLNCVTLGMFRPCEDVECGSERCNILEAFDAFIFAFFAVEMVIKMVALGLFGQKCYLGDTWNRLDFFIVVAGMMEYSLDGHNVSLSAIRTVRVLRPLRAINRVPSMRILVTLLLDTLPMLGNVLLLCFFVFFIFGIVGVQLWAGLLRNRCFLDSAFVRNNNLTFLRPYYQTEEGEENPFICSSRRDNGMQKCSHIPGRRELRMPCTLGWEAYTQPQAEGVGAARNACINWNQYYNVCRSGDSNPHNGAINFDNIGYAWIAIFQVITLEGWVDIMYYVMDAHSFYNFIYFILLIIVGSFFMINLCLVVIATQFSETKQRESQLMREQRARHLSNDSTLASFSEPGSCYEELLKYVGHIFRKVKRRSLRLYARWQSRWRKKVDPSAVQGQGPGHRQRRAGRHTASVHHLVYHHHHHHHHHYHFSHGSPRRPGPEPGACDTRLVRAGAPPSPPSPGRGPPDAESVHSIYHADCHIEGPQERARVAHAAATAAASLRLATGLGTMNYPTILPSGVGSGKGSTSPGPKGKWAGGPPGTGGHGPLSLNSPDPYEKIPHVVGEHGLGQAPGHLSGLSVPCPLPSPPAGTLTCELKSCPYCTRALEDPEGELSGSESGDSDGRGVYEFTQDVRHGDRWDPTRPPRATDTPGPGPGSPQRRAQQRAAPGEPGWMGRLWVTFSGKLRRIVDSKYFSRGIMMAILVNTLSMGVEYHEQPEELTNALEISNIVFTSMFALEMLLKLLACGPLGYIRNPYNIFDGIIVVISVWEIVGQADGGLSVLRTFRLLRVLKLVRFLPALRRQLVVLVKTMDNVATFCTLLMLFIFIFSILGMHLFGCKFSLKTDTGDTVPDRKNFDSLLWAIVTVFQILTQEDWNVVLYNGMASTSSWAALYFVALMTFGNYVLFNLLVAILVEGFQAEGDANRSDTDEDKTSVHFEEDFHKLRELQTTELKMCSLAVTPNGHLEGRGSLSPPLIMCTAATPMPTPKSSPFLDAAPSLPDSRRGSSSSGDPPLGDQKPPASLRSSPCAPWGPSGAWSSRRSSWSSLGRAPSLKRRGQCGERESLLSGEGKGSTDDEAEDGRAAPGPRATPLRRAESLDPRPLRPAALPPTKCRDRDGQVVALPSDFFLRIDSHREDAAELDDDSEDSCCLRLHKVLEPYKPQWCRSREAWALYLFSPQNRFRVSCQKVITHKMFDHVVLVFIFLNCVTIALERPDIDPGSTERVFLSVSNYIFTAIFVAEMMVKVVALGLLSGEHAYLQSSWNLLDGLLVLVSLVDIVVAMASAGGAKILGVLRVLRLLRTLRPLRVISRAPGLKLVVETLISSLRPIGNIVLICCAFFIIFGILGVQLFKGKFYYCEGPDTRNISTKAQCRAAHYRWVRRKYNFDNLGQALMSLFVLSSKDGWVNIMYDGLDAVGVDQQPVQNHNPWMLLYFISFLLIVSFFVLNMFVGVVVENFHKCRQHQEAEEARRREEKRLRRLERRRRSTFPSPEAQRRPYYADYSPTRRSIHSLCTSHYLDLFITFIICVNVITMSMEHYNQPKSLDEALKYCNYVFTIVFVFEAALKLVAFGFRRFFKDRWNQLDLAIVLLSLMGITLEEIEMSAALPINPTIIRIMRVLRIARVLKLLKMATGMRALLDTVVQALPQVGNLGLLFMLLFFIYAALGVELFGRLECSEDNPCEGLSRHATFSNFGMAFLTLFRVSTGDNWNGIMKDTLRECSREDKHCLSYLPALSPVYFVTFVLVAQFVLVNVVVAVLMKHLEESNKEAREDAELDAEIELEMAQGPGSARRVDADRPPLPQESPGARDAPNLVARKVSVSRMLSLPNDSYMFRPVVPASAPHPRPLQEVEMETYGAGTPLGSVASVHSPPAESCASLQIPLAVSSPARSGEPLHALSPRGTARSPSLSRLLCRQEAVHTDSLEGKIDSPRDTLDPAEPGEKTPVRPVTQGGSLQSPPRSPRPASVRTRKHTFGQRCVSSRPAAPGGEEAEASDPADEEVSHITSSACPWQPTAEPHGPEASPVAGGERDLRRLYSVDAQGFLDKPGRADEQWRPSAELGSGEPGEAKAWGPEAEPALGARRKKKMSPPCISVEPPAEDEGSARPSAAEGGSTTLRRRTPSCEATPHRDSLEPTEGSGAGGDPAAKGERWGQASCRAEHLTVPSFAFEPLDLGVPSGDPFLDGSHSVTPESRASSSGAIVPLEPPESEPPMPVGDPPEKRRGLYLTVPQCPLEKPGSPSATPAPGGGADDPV

By inhibition is commonly meant the percentage by which the read-out fell short of the control. `O=S(=O)(NC1CC12CCN(CCc1ccccc1)CC2)c1cc(Cl)cc(Cl)c1` (stereo not drawn) [Example 52, 3,5-Dichloro-N-(6-phenethyl-6-azaspiro[2.5]octan-1-yl)benzenesulfonamide] displayed an inhibition at 1 µM under setting [1] of 29%. On the same count and under the same terms, the same measure for `CC(C)(C)NC(=O)CN1CCC2(CC1)CC2NS(=O)(=O)c1cc(Cl)cc(Cl)c1` (stereo not drawn) [Example 53, N-(tert-Butyl)-2-(1-((3,5-dichlorophenyl)sulfonamido)-6-azaspiro[2.5]octan-6-yl)acetamide]: 25%. For orientation: IC50 means the concentration at which inhibition is half-maximal. Consider `CN(C(=O)c1cc(Cl)cc(Cl)c1)C1CC12CCN(CCC(C)(C)C)CC2` (stereo not drawn) [Example 54, 3,5-Dichloro-N-(6-(3,3-dimethylbutyl)-6-azaspiro[2.5]octan-1-yl)-N-methylbenzamide], for which the IC50 under setting [2] is 230 nM. Same read-out and setting: the same measure for `CC(C)(C)CCN1CCC2(CC1)CC2N(CC1CC1)C(=O)c1cc(Cl)cc(Cl)c1` (stereo not drawn) [Example 55, 3,5-Dichloro-N-(cyclopropylmethyl)-N-(6-(3,3-dimethylbutyl)-6-azaspiro[2.5]octan-1-yl)benzamide]: 70 nM; for `CC(C)(C)C(O)CN1CCC2(CC1)CC2NC(=O)c1cc(Cl)cc(Cl)c1` (stereo not drawn) [Example 58, 3,5-Dichloro-N-(6-(2-hydroxy-3,3-dimethylbutyl)-6-azaspiro[2.5]octan-1-yl)benzamide]: 220 nM; for `O=C(NC1CC12CCN(CC(O)c1ccc(C(F)(F)F)cc1)CC2)c1cc(Cl)cc(Cl)c1` (stereo not drawn) [Example 59, 3,5-Dichloro-N-(6-(2-hydroxy-2-(4-(trifluoromethyl)phenyl)ethyl)-6-azaspiro[2.5]octan-1-yl)benzamide]: 70 nM. As for `CC(C)(C)CCN1CCC2(CCC2NC(=O)c2cc(Cl)cc(Cl)c2)CC1` (stereo not drawn) [Example 69, 3,5-Dichloro-N-(7-(3,3-dimethylbutyl)-7-azaspiro[3.5]nonan-1-yl)benzamide], the IC50 under setting [2] is 280 nM. In the case of `CC(C)(C)NC(=O)CN1CCC2(CCC2NC(=O)c2cc(Cl)cc(Cl)c2)CC1` (stereo not drawn) [Example 71, N-(7-(2-(tert-Butylamino)-2-oxoethyl)-7-azaspiro[3.5]nonan-1-yl)-3,5-dichlorobenzamide], the 50% inhibitory concentration (IC50) under setting [2] came out at 200 nM. On the same count and under the same terms, the same measure for `CC(C)(C)NC(=O)CN1CCC2(CC1)CC2CNC(=O)c1cc(Cl)cc(Cl)c1` (stereo not drawn) [Example 87, N-((6-(2-(tert-Butylamino)-2-oxoethyl)-6-azaspiro[2.5]octan-1-yl)methyl)-3,5-dichlorobenzamide]: 690 nM; for `CC(C)(C)CCN1CCC2(CC1)CC2CNC(=O)c1cc(Cl)cc(Cl)c1` (stereo not drawn) [Example 88, 3,5-Dichloro-N-((6-(3,3-dimethylbutyl)-6-azaspiro[2.5]octan-1-yl)methyl)benzamide]: 90 nM; for `O=C(NCC1CC12CCN(CCc1ccccc1)CC2)c1cc(Cl)cc(Cl)c1` (stereo not drawn) [Example 89, 3,5-Dichloro-N-((6-phenethyl-6-azaspiro[2.5]octan-1-yl)methyl)benzamide]: 90 nM. The same measure, in the same setting: the same measure for `CC(C)(C)NC(=O)CN1CCC2(CC1)CC2C(=O)Nc1cc(Cl)cc(Cl)c1` (stereo not drawn) [Example 90]: 130 nM; for `CC(C)(C)CCN1CCC2(CC1)CC2C(=O)Nc1cc(Cl)cc(Cl)c1` (stereo not drawn) [Example 91, N-(3,5-Dichlorophenyl)-6-(3,3-dimethylbutyl)-6-azaspiro[2.5]octane-1-carboxamide]: 60 nM.

Under setting [1], `O=C(Nc1cc(Cl)cc(Cl)c1)C1CC12CCN(CCc1ccccc1)CC2` (stereo not drawn) [Example 92, N-(3,5-Dichlorophenyl)-6-phenethyl-6-azaspiro[2.5]octane-1-carboxamide] showed an inhibition at 1 µM of 35%.

As for `CC(C)(C)NC(=O)CN1CCC2(CC1)CC2CNc1cc(Cl)cc(Cl)c1` (stereo not drawn) [Example 93], the IC50 under setting [2] stood at 100 nM. With `CC(C)(C)CCN1CCC2(CC1)CC2CNc1cc(Cl)cc(Cl)c1` (stereo not drawn) [Example 94], the IC50 under setting [2] stood at 130 nM.

Compound `Clc1cc(Cl)cc(NCC2CC23CCN(CCc2ccccc2)CC3)c1` (stereo not drawn) [Example 95] gave an inhibition at 1 µM under setting [1] of 67%. Still for that read-out and setting: the same measure for `O=C(NCC1CCN(CCC2CC2)CC1)c1ccc(Cl)s1` [Example 97, 5-Chloro-N-((1-(2-cyclopropylethyl)piperidin-4-yl)methyl)thiophene-2-carboxamide]: 33%.

`CC(C)(C)NC(=O)CN1CCC(CNC(=O)CCc2cccc(Cl)c2)CC1` [Example 99, N-((1-(2-(tert-Butylamino)-2-oxoethyl)piperidin-4-yl)methyl)-3-(3-chlorophenyl)propanamide] gave an inhibition at 1 µM under setting [1] of 75%. Same read-out and setting: the same measure for `O=C(CN1CCC(CNC(=O)c2ccccc2)CC1)NC1CCCCC1` [Example 100, N-((1-(2-(Cyclohexylamino)-2-oxoethyl)piperidin-4-yl)methyl)benzamide]: 26%; for `O=C(CN1CCC(CNC(=O)c2ccccc2)CC1)Nc1ccccc1` [Example 101, N-((1-(2-Oxo-2-(phenylamino)ethyl)piperidin-4-yl)methyl)benzamide]: 44%; for `O=C(CN1CCC(CNC(=O)c2ccc(O)cc2)CC1)Nc1ccccc1` [Example 102, 4-Hydroxy-N-((1-(2-oxo-2-(phenylamino)ethyl)piperidin-4-yl)methyl)benzamide]: 47%. Compound `COc1cccc(C(=O)NCC2(C)CCN(CC(=O)NC(C)(C)C)CC2)c1` [Example 108, N-((1-(2-(tert-butylamino)-2-oxoethyl)-4-methylpiperidin-4-yl)methyl)-3-methoxybenzamide] showed an inhibition at 1 µM under setting [1] of 53%. For `O=C(CN1CCC(CO)(CNC(=O)c2ccccc2F)CC1)Nc1ccccc1` [Example 110, 2-fluoro-N-((4-(hydroxymethyl)-1-(2-oxo-2-(phenylamino)ethyl)piperidin-4-yl)methyl)benzamide], the inhibition at 1 µM under setting [1] worked out at 44%. On to `O=C(N[C@@H]1CCC12CCN(CCc1ccccc1)CC2)c1ccccc1` [Example 111], for which the IC50 stood at 1500 nM. This compound showed an inhibition at 1 µM under setting [1] of 30%.

Take `O=C(N[C@H]1CCC12CCN(CCc1ccccc1)CC2)c1ccccc1` [Example 112]: under setting [1], the inhibition at 1 µM was 24%. The same measure, in the same setting: the same measure for `O=C(Nc1nnc(-c2ccc(Cl)s2)o1)c1ccccc1` [Example 117, N-(5-(5-Chlorothiophen-2-yl)-1,3,4-oxadiazol-2-yl)benzamide]: 24%. As for `O=C(CCc1cccc(Cl)c1)Nc1nnc(-c2ccccc2)o1` [Example 119, 3-(3-Chlorophenyl)-N-(5-phenyl-1,3,4-oxadiazol-2-yl)propanamide], the inhibition at 3 µM (HEK293, Table 1 primary screening, 3 μM as indicated in cell, read-out: % inhibition at 3 μM) was determined as 5%. Consider `O=C(CCc1ccc(Cl)c(Cl)c1)Nc1nnc(-c2ccc(Cl)s2)o1` [Example 120, N-(5-(5-Chlorothiophen-2-yl)-1,3,4-oxadiazol-2-yl)-3-(3,4-dichlorophenyl)propanamide], for which 1 µM produced 9.2% inhibition under setting [1]. Under setting [1], `O=C(Cc1cccc(Cl)c1)Nc1nnc(-c2ccc(Cl)s2)o1` [Example 121, 2-(3-Chlorophenyl)-N-(5-(5-chlorothiophen-2-yl)-1,3,4-oxadiazol-2-yl)acetamide] had an inhibition at 1 µM of 75%.

`Cc1cc(C(=O)Nc2nnc(-c3ccccc3)o2)no1` [Example 122, 5-Methyl-N-(5-phenyl-1,3,4-oxadiazol-2-yl)isoxazole-3-carboxamide] displayed an inhibition at 1 µM under setting [1] of 14.9%. The same measure, in the same setting: the same measure for `O=C(Nc1nnc(-c2ccccc2)o1)c1cnccn1` [Example 124, N-(5-Phenyl-1,3,4-oxadiazol-2-yl)pyrazine-2-carboxamide]: 7.1%.
